Experimental data reported in patent publication US5763433A, “Pharmaceutical compositions containing 3-beta-hydroxylated 6,7-substituted steroid derivatives, and use thereof” (Conservatoire National des Arts et Metiers, priority 1992, dated 1998).

Key:
[1] = biological target: T1, nuclear binding of tritiated dexamethazone (glucocorticoid receptors) (Mus musculus, UniProt P06537); test: Displacement of the nuclear binding of tritiated dexamethazone in isolated liver, brain, thymus and spleen cells; design: species or system C57BL/6 mouse; details: for Displacement coefficient for nuclear binding of tritiated dexamethazone, Liver: liver cells, 100-fold excess of steroid over 2-80 nM 3H-dexamethazone, 60 min; for Displacement coefficient for nuclear binding of tritiated dexamethazone, Liver / Displacement coefficient for nuclear binding of tritiated dexamethazone, Brain / Displacement coefficient for nuclear binding of tritiated dexamethazone, Spleen / Displacement coefficient for nuclear binding of tritiated dexamethazone, Thymus: no competitor = zero, unlabelled dexamethazone = 100, mean of triplicate; for Displacement coefficient for nuclear binding of tritiated dexamethazone, Brain: brain cells; for Displacement coefficient for nuclear binding of tritiated dexamethazone, Spleen: spleen cells; for Displacement coefficient for nuclear binding of tritiated dexamethazone, Thymus: thymus cells
T1 construct: The liver, brain, spleen and thymus are excised and the cells of each organ are recovered; from tissue; host or cells: isolated cells of liver, brain, spleen and thymus of metyrapone-treated C57BL/6 mice
T1 sequence (P06537 1-792): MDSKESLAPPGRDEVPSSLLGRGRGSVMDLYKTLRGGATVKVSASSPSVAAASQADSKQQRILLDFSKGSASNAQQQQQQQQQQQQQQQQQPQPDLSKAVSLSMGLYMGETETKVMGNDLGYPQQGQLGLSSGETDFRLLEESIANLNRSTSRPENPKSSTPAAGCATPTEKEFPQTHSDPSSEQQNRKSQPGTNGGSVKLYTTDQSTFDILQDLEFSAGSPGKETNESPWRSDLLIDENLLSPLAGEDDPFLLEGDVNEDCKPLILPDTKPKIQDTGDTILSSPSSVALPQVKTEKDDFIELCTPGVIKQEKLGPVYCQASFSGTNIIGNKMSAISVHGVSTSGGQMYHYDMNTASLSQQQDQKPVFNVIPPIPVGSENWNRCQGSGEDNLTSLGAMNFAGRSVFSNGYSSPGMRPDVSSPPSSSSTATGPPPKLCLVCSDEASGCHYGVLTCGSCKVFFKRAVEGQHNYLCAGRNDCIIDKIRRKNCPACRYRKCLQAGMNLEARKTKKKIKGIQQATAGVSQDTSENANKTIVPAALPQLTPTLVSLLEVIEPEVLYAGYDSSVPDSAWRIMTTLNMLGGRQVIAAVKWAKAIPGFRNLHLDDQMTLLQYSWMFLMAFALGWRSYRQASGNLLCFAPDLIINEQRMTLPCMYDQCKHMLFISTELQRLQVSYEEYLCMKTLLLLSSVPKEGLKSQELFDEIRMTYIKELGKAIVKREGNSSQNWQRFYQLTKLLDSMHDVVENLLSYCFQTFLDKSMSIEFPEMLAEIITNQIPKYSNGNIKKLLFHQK
Method: The isolated hepatocytes are incubated for 1 hour at room temperature with increasing concentrations (2-80 nM) of ^3 H-dexamethazone (DEX*). […] The hepatocyte nuclei are then isolated and purified and the radioactivity corresponding to the DEX* still bound is measured and expressed in cpm/10 ug of DNA. The area under the curve DEX* corresponds to zero displacement of the radioactivity. The area under the curve DEX*/DEX which corresponds to the displacement of radioactivity by the same molecule is taken arbitrarily as 100. The areas under the curve obtained with the other steroids makes it possible to calculate by interpolation between the areas zero and 100 their displacement coefficients for the nuclear binding of DEX*.
The mice are anesthetized with ether and bled, then perfused intracardially with physiological serum containing collagenase B (0.03 g/100 ml) for 10 minutes. […] The quantities of cells obtained are estimated on the base of the measurement of the DNA contained in the preparations.
The nuclei are recovered and their radioactive content measured as described by the authors cited above.
The area under the curve of tritiated dexamethazone alone is measured and taken as zero. […] The displacement coefficients found for each of the other steroids are calculated by interpolation on this scale, each result being the mean of a triplicate determination.

anti-lysozyme IgG = test: Immunoenzymatic measurement of anti-lysozyme IgG in serum of mice immunized against lysozyme; assay type: in vivo, C57BL/6 mice; details: for Optical densities +/- SD, anti-lysozyme IgG, first serial dilution (*): dilution not given, PREG 0,5 g/kg 1 hour before; for Optical densities +/- SD, anti-lysozyme IgG, 1/540 serial dilution: serum 1/540; for Optical densities +/- SD, anti-lysozyme IgG, 1/540 serial dilution / Optical densities +/- SD, anti-lysozyme IgG, 1/180 serial dilution / Optical densities +/- SD, anti-lysozyme IgG, first serial dilution: s.c., mean of 5 mice; for Optical densities +/- SD, anti-lysozyme IgG, 1/540 serial dilution / Optical densities +/- SD, anti-lysozyme IgG, 1/180 serial dilution: doses and timing as E1; for Optical densities +/- SD, anti-lysozyme IgG, 1/180 serial dilution: serum 1/180; for Optical densities +/- SD, anti-lysozyme IgG, first serial dilution: serum dilution not given, PREG 0,5 g/kg, DHEA 1,0 g/kg, ADIOL 125 mg/kg 1 hour before lysozyme, 7-hydroxy-PREG and 7-hydroxy-DHEA 6,25 mg/kg, 7β-hydroxy-DHEA 50,0 mg/kg, 7- and 7β-hydroxy-ADIOL 25,0 mg/kg with lysozyme; for Effect on serum anti-lysozyme IgG (in words): steroid administered s.c. simultaneously with lysozyme
Method: The immunity effector effect was tested by subcutaneous injection concomitantly with that of an antigen and the 7-alpha- or 7-beta-hydroxylated derivative into C57BL/6 mice according to a standard immunization protocol (Methods in Enzymology (1980), vol. 70).
The effect of the compound as cellular immunity effector is measured by the quantity of circulating IgG directed against the antigen 21 days after the injection and after a booster injection 14 days layer.
Thirty five groups of five 6-weeks old C57BL/6 mice are given a subcutaneous injection of 200 ug of hen egg white lysozyme on days one and fourteen of the immunization protocol. Solutions of DHEA (Sigma D-4500) in dimethyl sulfoxide (DMSO) are injected in the same manner at variable times before the first injection of lysozyme. Amounts ranging from 0.25 and 2 g/kg are used. Ten other groups of 5 mice are given a subcutaneous injection of 6.25 to 50 mg/kg of 7-alpha-hydroxy-DHEA or 7-beta-hydroxy-DHEA dissolved in DMSO at the same time as the first lysozyme injection. Two groups receive only DMSO with lysozyme (controls). The blanks correspond to one group of 5 mice and are not given an injection.
Three weeks after the first injections the animals, then aged 9 weeks, are decapitated. The blood of each animal is collected and the presence of anti-lysozyme G immunoglobulins (IgG) is measured in serial dilutions of the sera by an immunoenzymatic titration using goat anti-mouse (Fc) IgG immunoglobulin labelled with peroxidase.
A group of 5 mice is given the subcutaneous injection of 125 mg/kg of 5-androstene-3-beta, 17-beta-diol (ADIOL) one hour prior to the first injection of lysozyme, and two groups of 5 mice are treated with 25 mg/kg of 7-alpha-hydroxy-ADIOL or 7-beta-hydroxy-ADIOL at the time of the first lysozyme injection.
DHEA or PREG or ADIOL is injected subcutaneously 1 hour before the first lysozyme injection. The 7-hydroxylated derivatives are administered simultaneously with the lysozyme injection. The immunoenzymatic measurement of the anti-lysozyme IgGs in the serial dilutions of the sera of each animal makes use of goat anti-mouse (Fc) IgG immunoglobulin, labelled with peroxidase in 96-well plates treated with lysozyme. The mean value of the optical densities measured in each group of 5 mice is calculated as well as the standard deviation (SD).

[2] = * calculated from measurements on higher dilutions of the serum, 7-hydroxy-PREG 6,25 mg/kg with lysozyme

Compound | Displacement coefficient for nuclear binding of tritiated dexamethazone, Liver [1] | Optical densities +/- SD, anti-lysozyme IgG, 1/540 serial dilution (anti-lysozyme IgG) | Optical densities +/- SD, anti-lysozyme IgG, 1/180 serial dilution (anti-lysozyme IgG) | further results
CC(=O)[C@H]1CC[C@H]2[C@@H]3[C@@H](O)C=C4C[C@@H](O)CC[C@]4(C)[C@H]3CC[C@]12C [Steroid 7β-OH-PREG, 7-beta-hydroxy-pregnenolone] | 82 |  |  | 
C[C@]12CC[C@H](O)C[C@@H]1CC(=O)[C@@H]1[C@@H]2CC[C@]2(C)C(=O)CC[C@@H]12 [Steroid 7-oxo-ISOA, 3-beta-hydroxy-5-alpha-androstane-7,17-dione] | 84 |  |  | 
C[C@]12CC[C@H](O)C[C@@H]1C[C@H](O)[C@@H]1[C@@H]2CC[C@]2(C)C(=O)CC[C@@H]12 [Steroid 7β-OH-ISOA, 3-beta, 7-beta-dihydroxy-5-alpha-androstane-17-one] | 68 |  |  | 
C[C@]12CC[C@H](O)C[C@@H]1C[C@@H](O)[C@@H]1[C@@H]2CC[C@]2(C)C(=O)CC[C@@H]12 [Steroid 7α-OH-ISOA, 3-beta, 7-alpha-dihydroxy-5-alpha-androstane-17-one] | 102 |  |  | 
CC(=O)[C@H]1CC[C@H]2[C@@H]3[C@H](O)C=C4C[C@@H](O)CC[C@]4(C)[C@H]3CC[C@]12C [7-hydroxy-PREG, 7-alpha-hydroxy-PREG] | 34 | 0,77 ± 0,05 |  | Optical densities +/- SD, anti-lysozyme IgG, first serial dilution (*) (anti-lysozyme IgG; [2]): 4,46 ± 0,30; Optical densities +/- SD, anti-lysozyme IgG, 1/180 serial dilution (*) (anti-lysozyme IgG; * calculated from measurements on higher dilutions of the serum, 1/180, 7-hydroxy-PREG 6,25 mg/kg with lysozyme): 2,20 ± 0,14; Displacement coefficient for nuclear binding of tritiated dexamethazone, Brain ([1]; 100-fold excess of steroid): 38; Displacement coefficient for nuclear binding of tritiated dexamethazone, Spleen ([1]; 100-fold excess of steroid): 81; Displacement coefficient for nuclear binding of tritiated dexamethazone, Thymus ([1]; 100-fold excess of steroid): 94
C[C@]12CC[C@H]3[C@@H]([C@H](O)C=C4C[C@@H](O)CC[C@@]43C)[C@@H]1CC[C@@H]2O [7-hydroxy-ADIOL, androst-5-ene-3-beta, 7-alpha, 17-beta-triol] | 88 | 0,11 ± 0,01 | 0,14 ± 0,01 | Optical densities +/- SD, anti-lysozyme IgG, first serial dilution (anti-lysozyme IgG): 0,15 ± 0,02; Displacement of tritiated dexamethazone from nuclear binding / anti-glucocorticoid action (in words) ([1]; 100-fold excess of steroid): demonstrates its anti-glucocorticoid effect
C[C@]12CC[C@H](O)C[C@@H]1[C@@H](O)C[C@@H]1[C@@H]2CC[C@]2(C)C(=O)CC[C@@H]12 [Steroid 6α-OH-ISOA, 3-beta, 6-alpha-dihydroxy-5-alpha-androstane-17-one] | 63 |  |  | 
C[C@]12CC[C@H](O)CC1=C[C@H](O)[C@@H]1[C@@H]2CC[C@]2(C)C(=O)CC[C@@H]12 [7β-hydroxy-DHEA, 3-beta, 7-beta-dihydroxy-androst-5-en-17-one] | 80 | 0,13 ± 0,01 | 0,31 ± 0,04 | Optical densities +/- SD, anti-lysozyme IgG, first serial dilution (anti-lysozyme IgG): 0,46 ± 0,06; Effect on serum anti-lysozyme IgG (in words) (anti-lysozyme IgG; listed as 7-beta-OH-DHEA): effect equivalent to that of DHEA injected 1 hour before the antigen, but at doses 20 times lower; Effect on serum anti-lysozyme IgG (in words) (anti-lysozyme IgG; listed as 7-beta-hydroxy-DHEA): response identical with that of 1 g/kg of DHEA administered 1 hour prior to that of lysozyme; Displacement coefficient for nuclear binding of tritiated dexamethazone, Brain ([1]; 100-fold excess of steroid): 65
CC(=O)[C@H]1CC[C@H]2[C@@H]3CC=C4C[C@@H](O)CC[C@]4(C)[C@H]3CC[C@]12C [PREG, 3-beta-hydroxy-5-pregnen-20-one, reference compound] |  | 0,56 ± 0,15 | 1,83 ± 0,48 | Optical densities +/- SD, anti-lysozyme IgG, first serial dilution (*) (anti-lysozyme IgG; [2]): 4,67 ± 1,21; Effect on serum concentrations of anti-lysozyme IgG (in words) (anti-lysozyme IgG; steroid administered s.c. at least one hour prior to the injection of lysozyme): increase the serum concentrations of anti-lysozyme IgG
C[C@]12CC[C@H]3[C@@H]([C@@H](O)C=C4C[C@@H](O)CC[C@@]43C)[C@@H]1CC[C@@H]2O [7β-hydroxy-ADIOL, androst-5-ene-3-beta,7-beta, 17-beta-triol] |  | 0,12 ± 0,01 | 0,18 ± 0,02 | Optical densities +/- SD, anti-lysozyme IgG, first serial dilution (anti-lysozyme IgG): 0,18 ± 0,06
C[C@]12CC[C@H](O)C[C@@H]1C[C@@H](O)[C@@H]1[C@@H]2CC[C@]2(C)[C@@H](O)CC[C@@H]12 [Steroid 7α-OH-ADIOL, 5-alpha-androstane-3-beta, 7-alpha, 17-beta-triol] | 83 |  |  | Displacement coefficient for nuclear binding of tritiated dexamethazone, Brain ([1]; 100-fold excess of steroid): 96; Displacement coefficient for nuclear binding of tritiated dexamethazone, Spleen ([1]; 100-fold excess of steroid): 125; Displacement coefficient for nuclear binding of tritiated dexamethazone, Thymus ([1]; 100-fold excess of steroid): 96
C[C@]12CC[C@H](O)CC1=CC(=O)[C@@H]1[C@@H]2CC[C@]2(C)C(=O)CC[C@@H]12 [Steroid 7-oxo-DHEA, 3-beta-hydroxy-5-androsten-7,17-dione] | 28 |  |  | 
CC(=O)[C@H]1CC[C@H]2[C@@H]3C(=O)C=C4C[C@@H](O)CC[C@]4(C)[C@H]3CC[C@]12C [Steroid 7-oxo-PREG, 3-beta-hydroxy-5-pregnen-7,20-dione] | 35 |  |  | 
